# Results from patent US20180085330A1, “Dose Adjustment” (AbbVie Inc., priority 2016, published 2018).
# Read-outs that look alike come from different tables or passages of the source.
# Experiments:
# [1] = Potentially significant drug interactions identified in drug interaction studies (effect on concentration); format: in vivo, human
# Source text: Table 1 provides the effect of coadministration of glecaprevir and pibrentasvir on concentrations of concomitant drugs and the effect of concomitant drugs on glecaprevir and pibrentasvir.
# [2] = Drug interaction studies: pharmacokinetic parameters of coadministered drug in the presence of glecaprevir/pibrentasvir; format: in vivo, human; settings: digoxin 0.5 mg single dose; GLE/PIB 400/120 mg once daily
# Description: (§1) Drug interaction studies were performed with glecaprevir/pibrentasvir and other drugs that are likely to be coadministered and with drugs commonly used as probes for pharmacokinetic interactions.
# [3] = Digoxin single dose with multiple doses of glecaprevir and pibrentasvir (Example 3); format: in vivo, human (adult male and female subjects)
# Source text: This Example assessed pharmacokinetics, safety, and tolerability of multiple doses of glecaprevir and pibrentasvir with a single dose of digoxin. Adult male and female subjects in general good health (N=12) were enrolled in the study.
# [4] = Drug-drug interaction evaluation in overseas subjects, Phase 1 clinical studies (Example 6); format: in vivo, human (overseas subjects); settings: coadministered with glecaprevir and pibrentasvir
# Description: The drug-drug interaction (DDI) of glecaprevir and pibrentasvir was characterized from Phase 1 clinical studies in overseas subjects. DDI was evaluated between glecaprevir and pibrentasvir and drug transporter and CYP probes (CYP3A4, CYP1A2, CYP2D6, CYP2C9 and CYP2C19) and concomitant medications used in HCV-infected subjects including anti-retroviral (ARVs), calcium-channel blockers (CCB), angiotensin-receptor blockers (ARBs), opioids and tacrolimus. Safety and tolerability were assessed throughout the studies.
# P-glycoprotein (P-gp) = P-glycoprotein (P-gp) (Homo sapiens, UniProt P08183); test: P-gp inhibition; format: in vitro ADME
# [5] = target: T1, breast cancer resistance protein (BCRP) (Homo sapiens, UniProt Q9UNQ0); test: BCRP inhibition; format: in vitro ADME
# T1 sequence (Q9UNQ0 1-655): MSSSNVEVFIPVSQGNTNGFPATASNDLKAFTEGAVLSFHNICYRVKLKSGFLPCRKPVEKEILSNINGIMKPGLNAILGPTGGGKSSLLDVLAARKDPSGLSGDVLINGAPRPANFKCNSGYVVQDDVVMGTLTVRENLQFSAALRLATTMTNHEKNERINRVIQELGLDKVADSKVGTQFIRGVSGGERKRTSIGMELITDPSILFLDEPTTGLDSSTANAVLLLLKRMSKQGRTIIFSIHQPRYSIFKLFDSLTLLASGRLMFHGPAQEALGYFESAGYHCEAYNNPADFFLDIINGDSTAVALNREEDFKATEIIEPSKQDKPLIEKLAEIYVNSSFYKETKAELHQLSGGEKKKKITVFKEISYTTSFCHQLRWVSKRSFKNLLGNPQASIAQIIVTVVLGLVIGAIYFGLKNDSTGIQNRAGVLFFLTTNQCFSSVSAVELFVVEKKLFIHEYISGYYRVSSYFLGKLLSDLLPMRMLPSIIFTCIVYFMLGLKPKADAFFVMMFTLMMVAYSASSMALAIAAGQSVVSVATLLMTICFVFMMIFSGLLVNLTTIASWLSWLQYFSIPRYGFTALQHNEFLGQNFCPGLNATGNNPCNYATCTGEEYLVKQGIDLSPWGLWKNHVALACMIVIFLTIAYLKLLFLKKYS
# [6] = system: organic anion transporting polypeptide (OATP) 1B1/3; test: OATP1B1/3 inhibition; format: in vitro ADME
# cytochrome P450 (CYP) 3A = test: CYP3A inhibition; format: in vitro ADME
# CYP1A2 = target: T2, CYP1A2 (Homo sapiens, UniProt P05177); test: CYP1A2 inhibition; format: in vitro ADME
# T2 sequence (P05177 1-516): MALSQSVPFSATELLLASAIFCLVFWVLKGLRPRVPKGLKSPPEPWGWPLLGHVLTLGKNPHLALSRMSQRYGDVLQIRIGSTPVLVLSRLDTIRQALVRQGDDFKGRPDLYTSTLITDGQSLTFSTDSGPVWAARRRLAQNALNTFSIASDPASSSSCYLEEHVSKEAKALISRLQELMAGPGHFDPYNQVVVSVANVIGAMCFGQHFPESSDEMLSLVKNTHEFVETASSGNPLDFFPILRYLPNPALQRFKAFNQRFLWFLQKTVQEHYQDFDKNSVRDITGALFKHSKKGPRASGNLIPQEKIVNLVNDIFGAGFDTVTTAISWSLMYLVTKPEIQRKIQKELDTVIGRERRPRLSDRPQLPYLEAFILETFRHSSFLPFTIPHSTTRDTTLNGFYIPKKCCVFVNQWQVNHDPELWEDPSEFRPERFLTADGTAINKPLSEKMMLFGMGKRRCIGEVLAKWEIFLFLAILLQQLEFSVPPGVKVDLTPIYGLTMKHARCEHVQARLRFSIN
# [7] = target: T3, uridine glucuronosyltransferase (UGT) 1A1 (Homo sapiens, UniProt P22309); test: UGT1A1 inhibition; format: in vitro ADME
# T3 sequence (P22309 26-533): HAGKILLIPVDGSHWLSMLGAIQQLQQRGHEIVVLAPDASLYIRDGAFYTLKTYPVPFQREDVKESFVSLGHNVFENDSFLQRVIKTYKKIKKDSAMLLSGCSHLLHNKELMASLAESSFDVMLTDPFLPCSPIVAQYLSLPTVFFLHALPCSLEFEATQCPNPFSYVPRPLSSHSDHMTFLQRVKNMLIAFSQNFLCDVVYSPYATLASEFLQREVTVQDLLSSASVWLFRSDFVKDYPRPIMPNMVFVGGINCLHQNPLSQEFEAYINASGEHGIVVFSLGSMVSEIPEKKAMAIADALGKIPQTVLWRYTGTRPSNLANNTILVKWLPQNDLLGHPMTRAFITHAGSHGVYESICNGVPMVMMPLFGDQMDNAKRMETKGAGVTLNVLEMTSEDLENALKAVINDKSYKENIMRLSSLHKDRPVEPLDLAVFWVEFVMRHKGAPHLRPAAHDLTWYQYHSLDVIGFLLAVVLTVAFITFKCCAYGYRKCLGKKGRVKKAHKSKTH
# P-gp and/or BCRP = test: Substrate of P-gp and/or BCRP; format: in vitro ADME
# [8] = Drug interaction studies: pharmacokinetic parameters of glecaprevir or pibrentasvir in the presence of coadministered drug; format: in vivo, human
# Description: as §1
# OATP1B1/3 = test: Substrate of OATP1B1/3; format: in vitro ADME
# [9] = digoxin 0.5 mg single dose with glecaprevir 400 mg QD + pibrentasvir 120 mg QD
# [10] = digoxin 0.5 mg single dose, glecaprevir 400 mg QD + pibrentasvir 120 mg QD
# [11] = with atazanavir + ritonavir 300 + 100 mg once daily, GLE/PIB 300/120 mg once daily, effect on the first dose of glecaprevir and pibrentasvir
# [12] = with carbamazepine 200 mg twice daily, GLE/PIB 300/120 mg single dose
# [13] = with cyclosporine 100 mg single dose, GLE/PIB 300/120 mg once daily
# [14] = with cyclosporine 400 mg single dose, GLE/PIB 300/120 mg single dose
# [15] = with darunavir + ritonavir 800 + 100 mg once daily, GLE/PIB 300/120 mg once daily
# [16] = with elvitegravir/cobicistat/emtricitabine/tenofovir alafenamide 150/150/200/10 mg once daily, GLE/PIB 300/120 mg once daily
# [17] = with lopinavir/ritonavir 400/100 mg twice daily, GLE/PIB 300/120 mg once daily
# [18] = with omeprazole 20 mg once daily, GLE/PIB 300/120 mg single dose
# [19] = with omeprazole 40 mg once daily (1 hour before GLE/PIB), GLE/PIB 300/120 mg single dose
# [20] = with rifampin 600 mg (first close), GLE/PIB 300/120 mg single dose
# [21] = with rifampin 600 mg once daily, GLE/PIB 300/120 mg single dose 24 hours after final rifampin dose
# P-glycoprotein (P-gp), sequence (P08183 whole entry): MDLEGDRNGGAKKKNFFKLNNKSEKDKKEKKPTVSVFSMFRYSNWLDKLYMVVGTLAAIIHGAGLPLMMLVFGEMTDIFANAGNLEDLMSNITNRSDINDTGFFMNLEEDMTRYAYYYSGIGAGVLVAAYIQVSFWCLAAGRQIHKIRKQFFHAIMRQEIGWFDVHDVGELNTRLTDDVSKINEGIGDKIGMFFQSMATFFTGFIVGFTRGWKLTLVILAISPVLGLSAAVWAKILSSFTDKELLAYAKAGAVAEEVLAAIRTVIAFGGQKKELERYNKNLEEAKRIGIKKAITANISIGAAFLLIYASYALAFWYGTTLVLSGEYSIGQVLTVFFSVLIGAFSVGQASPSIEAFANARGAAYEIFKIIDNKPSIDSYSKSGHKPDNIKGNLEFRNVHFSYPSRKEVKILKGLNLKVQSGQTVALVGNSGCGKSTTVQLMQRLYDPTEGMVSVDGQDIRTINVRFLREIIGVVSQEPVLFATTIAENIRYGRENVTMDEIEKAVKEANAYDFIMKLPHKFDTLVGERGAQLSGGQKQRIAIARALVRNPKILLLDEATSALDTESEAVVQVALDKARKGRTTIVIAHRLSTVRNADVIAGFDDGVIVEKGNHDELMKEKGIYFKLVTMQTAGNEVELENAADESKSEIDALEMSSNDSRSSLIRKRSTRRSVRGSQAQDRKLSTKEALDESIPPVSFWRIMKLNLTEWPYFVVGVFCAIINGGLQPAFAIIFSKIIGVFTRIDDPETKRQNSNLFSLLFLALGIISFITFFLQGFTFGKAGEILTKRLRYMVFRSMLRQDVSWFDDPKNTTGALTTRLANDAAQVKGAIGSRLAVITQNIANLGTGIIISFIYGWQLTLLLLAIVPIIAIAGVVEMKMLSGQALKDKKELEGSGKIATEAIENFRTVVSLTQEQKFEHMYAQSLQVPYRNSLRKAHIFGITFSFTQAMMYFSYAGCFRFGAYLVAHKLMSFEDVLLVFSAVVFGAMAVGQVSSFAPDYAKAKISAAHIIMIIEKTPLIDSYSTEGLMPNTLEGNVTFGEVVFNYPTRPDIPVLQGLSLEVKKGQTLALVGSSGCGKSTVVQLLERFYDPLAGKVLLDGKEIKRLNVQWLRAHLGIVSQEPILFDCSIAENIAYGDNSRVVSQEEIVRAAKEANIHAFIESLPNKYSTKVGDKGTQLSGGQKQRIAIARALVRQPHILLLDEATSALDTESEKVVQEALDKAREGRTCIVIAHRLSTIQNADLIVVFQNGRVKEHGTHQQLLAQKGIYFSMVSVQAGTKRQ
smiles,measurement,setting,value
C[C@H]1O[C@@H](O[C@H]2[C@@H](O)C[C@H](O[C@H]3[C@@H](O)C[C@H](O[C@H]4CC[C@@]5(C)[C@H](CC[C@@H]6[C@@H]5C[C@@H](O)[C@]5(C)[C@@H](C7=CC(=O)OC7)CC[C@]65O)C4)O[C@@H]3C)O[C@@H]2C)C[C@H](O)[C@@H]1O [digoxin],Effect on Concentration,[1]; concentration of the concomitant drug when coadministered with glecaprevir and pibrentasvir,↑ digoxin
same,Central Value Ratio (90% CI) AUC,[2],1.48
same,Central Value Ratio (90% CI) Cmax,[2],1.72
same,"AUCinf higher when coadministered, compared to digoxin alone",[3]; [9],48%
same,"Cmax higher when coadministered, compared to digoxin alone",[3]; [9],72%
same,"fraction of digoxin eliminated in urine, difference with and without glecaprevir and pibrentasvir",[3]; [10],≤ 18%
same,"renal clearance, difference with and without glecaprevir and pibrentasvir",[3]; [10],≤ 18%
same,AUC increase,[4],48%
COC(=O)N[C@H](C(=O)N1CCC[C@H]1c1nc2cc([C@H]3CC[C@H](c4cc5nc([C@@H]6CCCN6C(=O)[C@@H](NC(=O)OC)[C@@H](C)OC)[nH]c5cc4F)N3c3cc(F)c(N4CCC(c5ccc(F)cc5)CC4)c(F)c3)c(F)cc2[nH]1)[C@@H](C)OC [pibrentasvir],inhibition of P-gp,P-glycoprotein (P-gp),inhibitors
same,inhibition of BCRP,[5],inhibitors
same,inhibition of OATP1B1/3,[6],inhibitors
same,inhibition of CYP3A,cytochrome P450 (CYP) 3A,weak inhibitors
same,inhibition of CYP1A2,CYP1A2,weak inhibitors
same,inhibition of UGT1A1,[7],weak inhibitors
same,substrate of P-gp and/or BCRP,P-gp and/or BCRP,substrates
"CC(C)(C)[C@@H]1NC(=O)O[C@@H]2CCC[C@H]2OC/C=C/C(F)(F)c2nc3ccccc3nc2O[C@@H]2C[C@@H](C(=O)N[C@]3(C(=O)NS(=O)(=O)C4(C)CC4)C[C@H]3C(F)F)N(C2)C1=O [glecaprevir, Glecaprevir]",Effect on Concentration,"[1]; concomitant Darunavir, Lopinavir, Ritonavir",↑ glecaprevir
same,Effect on Concentration,[1]; concomitant St. John's Wort (hypericum perforatum),↓ glecaprevir
same,Effect on Concentration,[1]; concomitant drug Carbamazepine,↓ glecaprevir
same,Effect on Concentration,[1]; concomitant drug Cyclosporine,↑ glecaprevir
same,Effect on Concentration,[1]; concomitant drug Efavirenz,↓ glecaprevir
same,Central Value Ratio (90% CI) AUC,[8]; [11],≥6.53
same,Central Value Ratio (90% CI) Cmax,[8]; [11],≥4.06
same,Central Value Ratio (90% CI) Cmin,[8]; [11],≥14.3
same,Central Value Ratio (90% CI) AUC,[8]; [12],0.34
same,Central Value Ratio (90% CI) Cmax,[8]; [12],0.33
same,Central Value Ratio (90% CI) AUC,[8]; [13],1.37
same,Central Value Ratio (90% CI) Cmax,[8]; [13],1.30
same,Central Value Ratio (90% CI) Cmin,[8]; [13],1.34
same,Central Value Ratio (90% CI) AUC,[8]; [14],5.08
same,Central Value Ratio (90% CI) Cmax,[8]; [14],4.51
same,Central Value Ratio (90% CI) AUC,[8]; [15],4.97
same,Central Value Ratio (90% CI) Cmax,[8]; [15],3.09
same,Central Value Ratio (90% CI) Cmin,[8]; [15],8.24
same,Central Value Ratio (90% CI) AUC,[8]; [16],3.05
same,Central Value Ratio (90% CI) Cmax,[8]; [16],2.50
same,Central Value Ratio (90% CI) Cmin,[8]; [16],4.58
same,Central Value Ratio (90% CI) AUC,[8]; [17],4.38
same,Central Value Ratio (90% CI) Cmax,[8]; [17],2.55
same,Central Value Ratio (90% CI) Cmin,[8]; [17],18.6
same,Central Value Ratio (90% CI) AUC,[8]; [18],0.71
same,Central Value Ratio (90% CI) Cmax,[8]; [18],0.78
same,Central Value Ratio (90% CI) AUC,[8]; [19],0.49
same,Central Value Ratio (90% CI) Cmax,[8]; [19],0.36
same,Central Value Ratio (90% CI) AUC,[8]; [20],8.55
same,Central Value Ratio (90% CI) Cmax,[8]; [20],6.52
same,Central Value Ratio (90% CI) AUC,[8]; [21],0.12
same,Central Value Ratio (90% CI) Cmax,[8]; [21],0.14
same,inhibition of P-gp,P-glycoprotein (P-gp),inhibitors
same,inhibition of BCRP,[5],inhibitors
same,inhibition of OATP1B1/3,[6],inhibitor
same,inhibition of OATP1B1/3,[6]; listed as Glecaprevir,inhibitors
same,inhibition of CYP3A,cytochrome P450 (CYP) 3A,weak inhibitors
same,inhibition of CYP1A2,CYP1A2,weak inhibitors
same,inhibition of UGT1A1,[7],weak inhibitors
same,substrate of P-gp and/or BCRP,P-gp and/or BCRP,substrates
same,substrate of OATP1B1/3,OATP1B1/3,substrate
